Assay results published in patent US12161723B2, “Water-based cannabinoid and opioid compositions” (DAY THREE LABS MAN[…]., priority 2014, dated 2024).

What was measured:
albumin (BSA) = albumin (BSA) (Bos taurus, UniProt P02769); test: Ethanolic cannabinoid solution mixed with aqueous albumin, protein-bound cannabinoid quantified (Example 2b); format: binding, bovine; design: protein-bound cannabinoid quantified, Vapor: unit not given beside the values; conditions: 100 microliters ethanolic solution + 500 microliters 5 mg/ml BSA, 30° C., 12 hours, non-adsorbed cannabinoids separated
Experimental: 100 microliters of ethanolic cannabinoid solution from cannabis vapor and cannabis smoke were each mixed with 500 microliters of aqueous albumin solution that had been prepared at a concentration of 5 mg albumin (BSA)/ml. The aqueous albumin solution combined with the ethanolic cannabinoid solution was incubated at 30° C. for 12 hours in open tubes. After 12 hours, the tubes were mixed and centrifuged, and non-adsorbed cannabinoids were separated from the solution. Concentrated protein-bound cannabinoid was dried and quantified as described below.

[1] = molecular target: T1, rice recombinant human serum albumin (HSA) (Homo sapiens, UniProt P02768); test: Cannabis vapor streamed through protein solution, cannabinoids adsorbed (Example 1f); format: binding; conditions: vapor of cannabis high in CBD; 1 mg/ml protein, ethanol:water 1:2, 30° C., 24 hours
T1 construct: host or cells: rice (recombinant expression host)
Experimental: (§1) The protein solutions were formed using ethanol and water in a 1:2 ratio. The solutions were incubated at 30° C. for 24 hours.

bovine γ-globulin = test: as above; format: binding; conditions: vapor of cannabis high in CBD; 1 mg/ml protein, ethanol:water 1:2, 30° C., 24 hours
Experimental: as §1

[2] = molecular target: T2, bovine serum albumin (BSA) (Bos taurus, UniProt P02769); test: Cannabis smoke bubbled through aqueous BSA solution, cannabinoids determined by HPLC (Example 1a); format: binding; conditions: BSA in Hartmann's solution; FIG. 2A
T2 construct: purchased Millipore, USA
Experimental: Protein-bound cannabinoid was formed according to the following method. An aqueous albumin solution was prepared by adding 20 (mg)) of bovine serum albumin (BSA, from Millipore, USA) to 10 milliliters (ml) ml Hartmann's solution (B. Braun Melsungen AG, Germany). BSA was completely dissolved using a shaker (Heidolph POLYMAX 1040) at 50 revolutions per minute.
A cannabis-filled cigarette was formed using a cigarette paper containing 0.8 gr ground cannabis (provided by “Seach” Israel), from flowers and budding leaves. A Pasteur pipette was cut longitudinally at its wide end, and the cigarette was lodged in to the cut end. The narrow end of the pipette was attached to a syringe. The cigarette was lit in a fume hood, and cigarette smoke was collected in the syringe by pulling the syringe plunger. The smoke was then slowly released into the BSA solution by depressing the plunger. Approximately 350 ml of smoke-containing air was gently bubbled through the BSA solution.
As a control, a solution of 10 ml of Hartmann's solution was prepared without the addition of BSA and a similar procedure of cannabis smoke formation and bubbling was performed.
Samples having a volume of 3 ml of the BSA solution and the control solution were each inserted in to HPLC glass vials and the open vials were inserted into a vacuum oven for 24 hours at 37° Celsius.
The solid phase after the evaporation was crushed in to a fine powder using mortar and pestle. The powder was extracted using Methanol chloroform 9:1 extract solution, sonicated for 30 minutes, and was then filtered and added in to an HPLC testing tube.
HPLC was performed using an HP1050 AGILENT, DAD detector, XBridge C18 3.5 μm 4.6×150 mm column, and according to the following parameters: […]

[3] = Cannabis smoke/vapor passed through pure ethanol, cannabinoid profile (Example 1d); format: physicochemical; conditions: for relative concentration of cannabinoids (relative to total cannabinoid content), Vapor passed through ethanol: vapor at 210° C.
Experimental: (§2) To show which cannabinoid compounds are solubilized in processes using BSA versus organic solvents, cannabis from two different batches was smoked and or vaporized. Vapor was formed using a “volcano” vaporizer at a temperature of 210° C. The smoke/vapor was passed through either a BSA/water/ethanol solution described in example 1b, comprising 33% by volume ethanol or through a pure ethanol (99% ethanol) solution. Solutions were stirred using a magnetic stirrer and were incubated for 48 hours, during which time, most of the ethanol evaporated. One of the batches of cannabis was high in THC, and the other batch of cannabis was high in both THC and CBD.

BSA [4] = molecular target: T3, BSA (Bos taurus, UniProt P02769); test: Cannabis smoke/vapor passed through BSA/water/ethanol solution, cannabinoid profile (Example 1d); format: binding, bovine; conditions: 33% ethanol, 48 hours incubation, washed
Experimental: as §2
The BSA/water/ethanol solution was washed after smoke or vapor was combined with it, and the amount of cannabinoids present was analyzed. The results of the comparison of relative concentration of cannabinoids (relative to total cannabinoid content) as expressed in percent (weight/weight), for a strain of cannabis high in THC are shown in the table below.

BSA [5] = molecular target: T3, BSA; test: Cannabis extract combined with albumin solution, cannabinoids adsorbed to BSA (Example 2a); format: binding, bovine; conditions: albumin solution 10 mg/ml (BSA) with 20% ethanol, 2 hours at room temperature
Experimental: (§3) Cannabis extract was prepared as follows: In short, cannabis plant matter is dried, ground and homogenized to form ground cannabis. The ground cannabis is extracted with methanol/chloroform (volume/volume ratio of 9:1). Sonication and filtration is then performed. Identity of cannabinoids is determined by HPLC by evaporation, dissolution in an appropriate solvent.
(§4) Drying of the cannabis plant matter occurs under high vacuum at about 37±2° C. for about 24 hours and then ground to form a fine powder. 200 mg of ground powder is combined with 10 ml of methanol/chloroform, and sonicated in an ice bath for 30 minutes at maximum power. The supernatant is then filtered through a 0.2 micron filter.
(§5) A sample of the cannabis extract was analyzed for content of cannabinoids. The cannabis extract was then combined with albumin solution having 20% ethanol at 10 mg/ml (BSA) and incubated for 2 hours at room temperature.

[6] = Cannabinoid content of cannabis extract (Example 2a); format: physicochemical; conditions: methanol/chloroform 9:1 cannabis extract
Experimental: as §3, §4, §5

[7] = 3 g high THC strain; 200 ml ethanol concentrated to about 3 ml
ovalbumin (hen) = molecular target: T4, ovalbumin (hen) (Gallus gallus, UniProt P01012); test: Cannabis vapor streamed through protein solution, cannabinoids adsorbed (Example 1f); format: binding; conditions: vapor of cannabis high in CBD; 1 mg/ml protein, ethanol:water 1:2, 30° C., 24 hours
T4 sequence (P01012 1-386): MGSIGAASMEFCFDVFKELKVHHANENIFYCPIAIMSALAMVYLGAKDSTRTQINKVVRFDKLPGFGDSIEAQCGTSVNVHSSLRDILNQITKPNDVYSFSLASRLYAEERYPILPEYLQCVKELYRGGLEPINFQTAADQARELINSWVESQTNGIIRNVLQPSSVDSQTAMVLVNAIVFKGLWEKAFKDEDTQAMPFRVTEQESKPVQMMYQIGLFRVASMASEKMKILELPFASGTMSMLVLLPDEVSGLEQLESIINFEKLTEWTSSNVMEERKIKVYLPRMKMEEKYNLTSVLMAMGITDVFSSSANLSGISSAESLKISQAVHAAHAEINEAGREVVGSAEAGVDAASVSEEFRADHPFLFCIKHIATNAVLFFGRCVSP
Experimental: as §1

[8] = strain of cannabis high in CBD and THC

Sequence of albumin (BSA) (P02769 25-607): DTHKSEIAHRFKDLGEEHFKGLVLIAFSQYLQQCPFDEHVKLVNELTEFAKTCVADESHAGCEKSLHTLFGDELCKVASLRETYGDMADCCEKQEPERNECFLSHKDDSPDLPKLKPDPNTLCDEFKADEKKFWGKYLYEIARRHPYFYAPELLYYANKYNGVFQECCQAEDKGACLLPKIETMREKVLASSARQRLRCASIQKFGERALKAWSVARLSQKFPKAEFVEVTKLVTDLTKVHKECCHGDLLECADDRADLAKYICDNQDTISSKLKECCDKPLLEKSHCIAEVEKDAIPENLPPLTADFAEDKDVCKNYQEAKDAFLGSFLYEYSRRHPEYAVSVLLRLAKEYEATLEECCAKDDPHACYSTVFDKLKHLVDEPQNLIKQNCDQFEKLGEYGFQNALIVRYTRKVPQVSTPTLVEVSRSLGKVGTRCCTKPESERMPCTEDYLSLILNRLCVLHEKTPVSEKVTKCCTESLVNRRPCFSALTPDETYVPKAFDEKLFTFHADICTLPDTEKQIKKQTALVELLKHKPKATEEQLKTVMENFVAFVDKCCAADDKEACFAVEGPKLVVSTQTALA
T3 sequence (P02769 25-607): as above
T2 sequence (P02769 25-607): as above
T1 sequence (P02768 25-609): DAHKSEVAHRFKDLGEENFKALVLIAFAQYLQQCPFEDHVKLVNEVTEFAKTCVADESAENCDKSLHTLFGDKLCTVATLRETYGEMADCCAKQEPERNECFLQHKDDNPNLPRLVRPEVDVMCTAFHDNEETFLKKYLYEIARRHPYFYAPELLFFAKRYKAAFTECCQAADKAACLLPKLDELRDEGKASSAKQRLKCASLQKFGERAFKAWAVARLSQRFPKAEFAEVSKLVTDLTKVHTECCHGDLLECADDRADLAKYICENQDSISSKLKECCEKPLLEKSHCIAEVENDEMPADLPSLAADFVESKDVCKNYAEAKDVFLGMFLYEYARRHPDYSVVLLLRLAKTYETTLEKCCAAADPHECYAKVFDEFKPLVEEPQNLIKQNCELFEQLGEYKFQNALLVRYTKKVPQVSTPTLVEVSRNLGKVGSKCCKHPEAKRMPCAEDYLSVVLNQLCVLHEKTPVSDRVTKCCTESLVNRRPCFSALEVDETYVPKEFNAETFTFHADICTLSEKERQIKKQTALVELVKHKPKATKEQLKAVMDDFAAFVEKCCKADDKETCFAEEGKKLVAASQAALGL

Structure (SMILES) | protein-bound cannabinoid quantified, Smoke (albumin (BSA)) | protein-bound cannabinoid quantified, Vapor (albumin (BSA)) | percentage of each cannabinoid relative to total cannabinoids adsorbed to protein, Rice recombinant HSA [1] [percentage] | percentage of each cannabinoid relative to total cannabinoids adsorbed to protein, Bovine γ-globulin (bovine γ-globulin) [percentage] | active cannabinoids found by HPLC in BSA aqueous solution after cannabis smoke was introduced [2] | relative concentration of cannabinoids (relative to total cannabinoid content), Smoke passed through ethanol [3, 8] | relative concentration of cannabinoids (relative to total cannabinoid content), Vapor passed through ethanol [3, 8] | relative concentration of cannabinoids (relative to total cannabinoid content), Smoke passed through ethanol ([3]; strain of cannabis high in THC) | relative concentration of cannabinoids (relative to total cannabinoid content), Vapor passed through ethanol ([3]; strain of cannabis high in THC) | relative concentration of cannabinoids (relative to total cannabinoid content), Smoke passed through BSA/water/ethanol (BSA [4]; [8]) | relative concentration of cannabinoids (relative to total cannabinoid content), Smoke passed through BSA/water/ethanol (BSA [4]; strain of cannabis high in THC) | percentage of each cannabinoid relative to total cannabinoids adsorbed to protein, Adsorbed to BSA after extract combined with BSA solution (BSA [5]) [percentage] | percentage of each cannabinoid relative to total cannabinoids, Extract [6] [percentage] | amount of cannabinoids dissolved in ethanol, Smoke [7] [micrograms/ml] | amount of cannabinoids dissolved in ethanol, Vapor [7] [micrograms/ml] | percentage of each cannabinoid relative to total cannabinoids adsorbed to protein, Ovalbumin (ovalbumin (hen)) [percentage] | relative concentration of cannabinoids (relative to total cannabinoid content), Vapor passed through BSA/water/ethanol (BSA [4]; [8])
CCCCCc1cc(O)c2c(c1)OC(C)(CCC=C(C)C)C=C2 (centres unmarked) [CBC, cannabichromene] | 2.13 | 1.845 | 0 | 0 | dissolved in the solution | 3.1 percent (weight/weight) | 3.8 percent (weight/weight) | 1.3 percent (weight/weight) | 0.0 percent (weight/weight) | 0.0 percent (weight/weight) | 0.0 percent (weight/weight) | 3 | 1 | 90.873 | 54.7468 |  | 
CCCCCc1cc(O)c(C/C=C(\C)CCC=C(C)C)c(O)c1C(=O)O [CBGA, cannabigerolic acid] | 0.58 | 1.43 | 0 | 0 |  | 0.4 percent (weight/weight) | 0.0 percent (weight/weight) | 0.6 percent (weight/weight) | 0.1 percent (weight/weight) | 0.0 percent (weight/weight) | 0.0 percent (weight/weight) | 2 | 3 | 23.088 | 28.7668 | 0 | 0.0 percent (weight/weight)
CCCCCc1cc(O)c2c(c1)OC(C)(C)c1ccc(C)cc1-2 [CBN, cannabinol] | 6.5 | 4.855 | 0 | 0 | dissolved in the solution | 1.6 percent (weight/weight) | 0.0 percent (weight/weight) | 1.7 percent (weight/weight) | 1.6 percent (weight/weight) | 0.0 percent (weight/weight) | 0.0 percent (weight/weight) | 2 | 2 | 276.856 | 135.5254 | 0 | 0.0 percent (weight/weight)
CCCCCc1cc2c(c(O)c1C(=O)O)[C@@H]1C=C(C)CC[C@H]1C(C)(C)O2 [THCA, tetrahydrocannabinoic acid] | 2.16 | 4.26 | 0 | 100 | dissolved in the solution | 0.7 percent (weight/weight) | 0.3 percent (weight/weight) | 0.9 percent (weight/weight) | 1.1 percent (weight/weight) | 5.3 percent (weight/weight) | 9.3 percent (weight/weight) | 29 | 22 | 83.765 | 72.8432 | 0 | 0.0 percent (weight/weight)
